Source: PubChem BioAssay AID1982 (Sanford-Burnham Center for Chemical Genomics, 2009)
The source made the active and inactive calls. The rule behind the calls is not given here.

How the values were obtained:
Assay in all cases: kinase panel binding selectivity, selectivity assay, biochemical, KINOMEscan (AID 1982)
[1] = biological target: 3-phosphoinositide-dependent protein kinase 1 (Homo sapiens) (UniProt O15530); conditions: KINOMEscan 353-kinase binding panel, qPCR; PDPK1; at 10 µM; active compounds read low
Chain of 3-phosphoinositide-dependent protein kinase 1 (Homo sapiens) (O15530 whole entry, looked up): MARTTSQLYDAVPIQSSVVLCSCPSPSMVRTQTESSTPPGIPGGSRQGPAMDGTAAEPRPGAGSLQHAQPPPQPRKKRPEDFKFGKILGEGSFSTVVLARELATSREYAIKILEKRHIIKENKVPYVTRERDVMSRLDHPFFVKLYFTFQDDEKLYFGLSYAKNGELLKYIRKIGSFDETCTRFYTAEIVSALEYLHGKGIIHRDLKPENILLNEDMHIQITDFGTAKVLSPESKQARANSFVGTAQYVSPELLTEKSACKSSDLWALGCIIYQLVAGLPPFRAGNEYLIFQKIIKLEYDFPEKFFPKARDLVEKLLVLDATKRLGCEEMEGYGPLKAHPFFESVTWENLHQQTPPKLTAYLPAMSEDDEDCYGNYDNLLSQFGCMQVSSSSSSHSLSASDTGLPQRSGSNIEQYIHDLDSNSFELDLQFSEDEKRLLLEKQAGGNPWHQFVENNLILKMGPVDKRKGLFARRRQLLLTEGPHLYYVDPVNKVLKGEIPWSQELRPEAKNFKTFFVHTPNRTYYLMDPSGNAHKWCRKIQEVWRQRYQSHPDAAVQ

[2] = tested on: ACVRL1; conditions: KINOMEscan 353-kinase binding panel, qPCR, at 10 µM, active compounds read low
[3] = tested on: ADCK4; conditions: KINOMEscan 353-kinase binding panel, qPCR, at 10 µM, active compounds read low
[4] = biological target: Aurora kinase A (Homo sapiens) (UniProt O14965); conditions: KINOMEscan 353-kinase binding panel, qPCR; AURKA; at 10 µM; active compounds read low
[5] = tested on: CSNK1A1L; conditions: KINOMEscan 353-kinase binding panel, qPCR, at 10 µM, active compounds read low
[6] = biological target: Calcium/calmodulin-dependent protein kinase type II subunit beta (Homo sapiens) (UniProt Q13554); conditions: KINOMEscan 353-kinase binding panel, qPCR; CAMK2B; at 10 µM; active compounds read low
Chain of Calcium/calmodulin-dependent protein kinase type II subunit beta (Homo sapiens) (Q13554 whole entry, looked up): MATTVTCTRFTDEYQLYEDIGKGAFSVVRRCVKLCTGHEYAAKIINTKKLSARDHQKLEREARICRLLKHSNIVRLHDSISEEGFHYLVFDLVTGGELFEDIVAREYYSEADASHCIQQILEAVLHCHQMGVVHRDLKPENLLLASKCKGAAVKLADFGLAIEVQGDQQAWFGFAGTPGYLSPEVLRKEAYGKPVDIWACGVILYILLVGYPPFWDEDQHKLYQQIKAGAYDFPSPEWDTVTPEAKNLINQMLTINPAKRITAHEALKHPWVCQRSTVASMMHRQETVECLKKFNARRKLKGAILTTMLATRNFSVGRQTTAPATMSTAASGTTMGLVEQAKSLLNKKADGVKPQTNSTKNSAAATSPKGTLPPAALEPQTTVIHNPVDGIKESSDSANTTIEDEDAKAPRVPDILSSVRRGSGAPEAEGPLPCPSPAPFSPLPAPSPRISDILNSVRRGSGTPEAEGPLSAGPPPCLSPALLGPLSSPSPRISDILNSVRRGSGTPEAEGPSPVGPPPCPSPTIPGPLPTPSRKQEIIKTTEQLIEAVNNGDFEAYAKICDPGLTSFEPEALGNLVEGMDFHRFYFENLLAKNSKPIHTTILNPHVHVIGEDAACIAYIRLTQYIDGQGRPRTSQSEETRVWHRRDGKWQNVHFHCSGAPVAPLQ

[7] = biological target: Calcium/calmodulin-dependent protein kinase type II subunit delta (Homo sapiens) (UniProt Q13557); conditions: KINOMEscan 353-kinase binding panel, qPCR; CAMK2D; at 10 µM; active compounds read low
Chain of Calcium/calmodulin-dependent protein kinase type II subunit delta (Homo sapiens) (Q13557 whole entry, looked up): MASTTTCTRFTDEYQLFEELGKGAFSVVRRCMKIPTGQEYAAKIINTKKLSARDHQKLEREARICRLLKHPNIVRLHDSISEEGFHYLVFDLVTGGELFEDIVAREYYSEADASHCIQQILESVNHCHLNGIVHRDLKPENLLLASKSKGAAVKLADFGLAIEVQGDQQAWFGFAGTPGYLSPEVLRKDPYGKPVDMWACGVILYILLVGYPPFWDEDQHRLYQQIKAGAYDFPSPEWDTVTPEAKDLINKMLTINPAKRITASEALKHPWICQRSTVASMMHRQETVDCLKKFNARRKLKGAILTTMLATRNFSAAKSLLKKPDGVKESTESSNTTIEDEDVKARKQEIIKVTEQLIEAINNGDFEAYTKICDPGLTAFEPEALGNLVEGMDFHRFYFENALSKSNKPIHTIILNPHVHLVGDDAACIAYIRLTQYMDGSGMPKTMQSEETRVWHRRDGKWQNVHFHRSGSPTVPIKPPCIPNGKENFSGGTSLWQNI

[8] = biological target: Dual specificity tyrosine-phosphorylation-regulated kinase 1B (Homo sapiens) (UniProt Q9Y463); conditions: KINOMEscan 353-kinase binding panel, qPCR; DYRK1B; at 10 µM; active compounds read low
[9] = tested on: ERK4; conditions: KINOMEscan 353-kinase binding panel, qPCR, at 10 µM, active compounds read low
[10] = biological target: Hepatocyte growth factor receptor (Homo sapiens) (UniProt P08581); conditions: KINOMEscan 353-kinase binding panel, qPCR; MET; at 10 µM; active compounds read low
[11] = tested on: JNK1; conditions: KINOMEscan 353-kinase binding panel, qPCR, at 10 µM, active compounds read low
[12] = tested on: LKB1; conditions: KINOMEscan 353-kinase binding panel, qPCR, at 10 µM, active compounds read low
[13] = tested on: MUSK; conditions: KINOMEscan 353-kinase binding panel, qPCR, at 10 µM, active compounds read low
[14] = biological target: Mitogen-activated protein kinase 12 (Homo sapiens) (UniProt P53778); conditions: KINOMEscan 353-kinase binding panel, qPCR; p38-gamma; at 10 µM; active compounds read low
Chain of Mitogen-activated protein kinase 12 (Homo sapiens) (P53778 whole entry, looked up): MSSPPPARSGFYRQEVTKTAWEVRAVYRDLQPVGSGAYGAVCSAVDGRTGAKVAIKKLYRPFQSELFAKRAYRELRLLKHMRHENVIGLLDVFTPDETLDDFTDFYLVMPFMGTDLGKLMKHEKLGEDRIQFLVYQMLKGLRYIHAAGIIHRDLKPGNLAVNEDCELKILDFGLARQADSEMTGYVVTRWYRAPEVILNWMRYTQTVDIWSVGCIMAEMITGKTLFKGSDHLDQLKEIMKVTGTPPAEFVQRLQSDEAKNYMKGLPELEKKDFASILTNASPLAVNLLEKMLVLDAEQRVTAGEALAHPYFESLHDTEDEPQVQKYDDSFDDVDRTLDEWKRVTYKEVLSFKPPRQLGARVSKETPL

[15] = tested on: NDR2; conditions: KINOMEscan 353-kinase binding panel, qPCR, at 10 µM, active compounds read low
[16] = tested on: NEK7; conditions: KINOMEscan 353-kinase binding panel, qPCR, at 10 µM, active compounds read low
[17] = biological target: Platelet-derived growth factor receptor beta (Homo sapiens) (UniProt P09619); conditions: KINOMEscan 353-kinase binding panel, qPCR; PDGFRB; at 10 µM; active compounds read low
[18] = biological target: RAC-alpha serine/threonine-protein kinase (Homo sapiens) (UniProt P31749); conditions: KINOMEscan 353-kinase binding panel, qPCR; AKT1; at 10 µM; active compounds read low
Chain of RAC-alpha serine/threonine-protein kinase (Homo sapiens) (P31749 whole entry, looked up): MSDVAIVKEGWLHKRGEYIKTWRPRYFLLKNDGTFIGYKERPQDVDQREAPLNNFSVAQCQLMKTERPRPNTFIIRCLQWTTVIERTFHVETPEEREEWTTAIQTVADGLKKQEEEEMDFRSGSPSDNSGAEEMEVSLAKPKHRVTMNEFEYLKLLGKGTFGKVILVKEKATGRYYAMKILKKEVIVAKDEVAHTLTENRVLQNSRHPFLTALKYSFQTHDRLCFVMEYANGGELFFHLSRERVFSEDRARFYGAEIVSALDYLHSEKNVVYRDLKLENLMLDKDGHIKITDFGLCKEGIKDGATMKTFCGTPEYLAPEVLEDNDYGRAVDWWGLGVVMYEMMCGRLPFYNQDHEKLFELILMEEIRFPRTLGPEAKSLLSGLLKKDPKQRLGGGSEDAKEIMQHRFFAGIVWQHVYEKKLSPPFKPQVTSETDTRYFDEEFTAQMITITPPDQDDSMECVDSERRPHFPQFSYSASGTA

[19] = tested on: RIPK4; conditions: KINOMEscan 353-kinase binding panel, qPCR, at 10 µM, active compounds read low
[20] = biological target: Ribosomal protein S6 kinase alpha-3 (Homo sapiens) (UniProt P51812); conditions: KINOMEscan 353-kinase binding panel, qPCR; RPS6KA3(Kin.Dom.1); at 10 µM; active compounds read low
Chain of Ribosomal protein S6 kinase alpha-3 (Homo sapiens) (P51812 whole entry, looked up): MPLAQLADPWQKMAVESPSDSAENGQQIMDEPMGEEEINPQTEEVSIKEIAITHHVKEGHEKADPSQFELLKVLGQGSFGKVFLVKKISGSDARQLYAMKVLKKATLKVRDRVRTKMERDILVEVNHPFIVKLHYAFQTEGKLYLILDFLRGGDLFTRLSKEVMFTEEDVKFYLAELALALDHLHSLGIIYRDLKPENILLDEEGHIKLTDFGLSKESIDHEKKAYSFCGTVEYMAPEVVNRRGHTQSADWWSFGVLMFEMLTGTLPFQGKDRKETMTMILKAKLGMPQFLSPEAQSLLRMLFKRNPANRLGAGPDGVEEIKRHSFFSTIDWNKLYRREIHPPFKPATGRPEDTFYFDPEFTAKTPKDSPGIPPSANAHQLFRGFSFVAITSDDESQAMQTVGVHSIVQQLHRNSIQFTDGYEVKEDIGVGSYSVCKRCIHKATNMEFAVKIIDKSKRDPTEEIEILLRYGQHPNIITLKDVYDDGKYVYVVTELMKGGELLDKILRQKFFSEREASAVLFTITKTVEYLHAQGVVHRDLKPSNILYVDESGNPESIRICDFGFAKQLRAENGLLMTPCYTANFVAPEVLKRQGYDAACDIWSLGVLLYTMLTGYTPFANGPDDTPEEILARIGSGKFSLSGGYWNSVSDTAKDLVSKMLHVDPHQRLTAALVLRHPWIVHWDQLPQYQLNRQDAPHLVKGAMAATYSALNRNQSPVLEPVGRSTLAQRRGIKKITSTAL

[21] = tested on: STK35; conditions: KINOMEscan 353-kinase binding panel, qPCR, at 10 µM, active compounds read low
[22] = biological target: Serine/threonine-protein kinase D2 (Homo sapiens) (UniProt Q9BZL6); conditions: KINOMEscan 353-kinase binding panel, qPCR; PRKD2; at 10 µM; active compounds read low
[23] = biological target: Serine/threonine-protein kinase D3 (Homo sapiens) (UniProt O94806); conditions: KINOMEscan 353-kinase binding panel, qPCR; PRKD3; at 10 µM; active compounds read low
[24] = biological target: Serine/threonine-protein kinase PAK 6 (Homo sapiens) (UniProt Q9NQU5); conditions: KINOMEscan 353-kinase binding panel, qPCR; PAK6; at 10 µM; active compounds read low
Chain of Serine/threonine-protein kinase PAK 6 (Homo sapiens) (Q9NQU5 whole entry, looked up): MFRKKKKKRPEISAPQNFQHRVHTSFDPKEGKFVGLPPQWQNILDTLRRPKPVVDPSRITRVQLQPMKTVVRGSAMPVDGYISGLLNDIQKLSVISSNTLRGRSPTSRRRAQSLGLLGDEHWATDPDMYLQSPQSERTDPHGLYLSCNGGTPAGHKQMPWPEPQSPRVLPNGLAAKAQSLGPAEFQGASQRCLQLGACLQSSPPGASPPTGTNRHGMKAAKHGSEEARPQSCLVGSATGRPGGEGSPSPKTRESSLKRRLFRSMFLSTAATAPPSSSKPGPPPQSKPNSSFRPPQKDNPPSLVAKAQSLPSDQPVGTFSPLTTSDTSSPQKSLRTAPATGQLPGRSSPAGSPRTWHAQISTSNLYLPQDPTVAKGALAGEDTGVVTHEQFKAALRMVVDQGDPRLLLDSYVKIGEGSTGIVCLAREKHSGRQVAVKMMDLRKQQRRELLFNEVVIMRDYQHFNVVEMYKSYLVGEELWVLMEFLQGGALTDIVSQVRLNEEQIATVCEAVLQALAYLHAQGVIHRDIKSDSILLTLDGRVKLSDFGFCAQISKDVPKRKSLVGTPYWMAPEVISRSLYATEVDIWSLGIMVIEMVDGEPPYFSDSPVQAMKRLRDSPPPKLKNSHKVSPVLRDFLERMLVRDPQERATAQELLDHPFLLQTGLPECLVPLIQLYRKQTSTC

[25] = biological target: Serine/threonine-protein kinase TAO1 (Homo sapiens) (UniProt Q7L7X3); conditions: KINOMEscan 353-kinase binding panel, qPCR; TAOK1; at 10 µM; active compounds read low
Chain of Serine/threonine-protein kinase TAO1 (Homo sapiens) (Q7L7X3 whole entry, looked up): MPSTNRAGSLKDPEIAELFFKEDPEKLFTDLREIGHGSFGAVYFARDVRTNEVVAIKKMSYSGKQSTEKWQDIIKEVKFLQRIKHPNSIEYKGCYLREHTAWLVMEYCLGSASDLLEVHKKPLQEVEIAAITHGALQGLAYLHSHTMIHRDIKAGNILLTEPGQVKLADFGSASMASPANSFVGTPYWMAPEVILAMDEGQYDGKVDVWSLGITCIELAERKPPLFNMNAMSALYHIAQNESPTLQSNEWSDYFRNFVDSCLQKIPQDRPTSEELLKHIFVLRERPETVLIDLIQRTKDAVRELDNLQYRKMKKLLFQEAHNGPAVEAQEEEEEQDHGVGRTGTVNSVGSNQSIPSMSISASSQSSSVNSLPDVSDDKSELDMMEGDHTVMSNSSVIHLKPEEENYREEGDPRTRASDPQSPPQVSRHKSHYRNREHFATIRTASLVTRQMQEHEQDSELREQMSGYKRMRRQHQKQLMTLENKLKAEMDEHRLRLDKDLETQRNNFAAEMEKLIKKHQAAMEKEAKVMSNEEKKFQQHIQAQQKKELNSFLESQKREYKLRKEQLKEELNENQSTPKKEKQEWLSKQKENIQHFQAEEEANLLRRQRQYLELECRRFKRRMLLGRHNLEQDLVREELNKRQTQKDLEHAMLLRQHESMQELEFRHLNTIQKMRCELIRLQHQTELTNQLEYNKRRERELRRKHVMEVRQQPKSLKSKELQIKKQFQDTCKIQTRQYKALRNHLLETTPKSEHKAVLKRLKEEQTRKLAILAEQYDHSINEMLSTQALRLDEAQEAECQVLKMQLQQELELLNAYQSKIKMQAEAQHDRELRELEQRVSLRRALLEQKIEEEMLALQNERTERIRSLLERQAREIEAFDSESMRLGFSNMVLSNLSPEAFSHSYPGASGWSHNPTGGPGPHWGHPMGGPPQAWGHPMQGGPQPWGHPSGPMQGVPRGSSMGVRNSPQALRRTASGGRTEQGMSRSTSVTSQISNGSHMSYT

[26] = tested on: TAK1; conditions: KINOMEscan 353-kinase binding panel, qPCR, at 10 µM, active compounds read low
[27] = tested on: TAOK3; conditions: KINOMEscan 353-kinase binding panel, qPCR, at 10 µM, active compounds read low
[28] = tested on: TIE2; conditions: KINOMEscan 353-kinase binding panel, qPCR, at 10 µM, active compounds read low
[29] = biological target: Tyrosine-protein kinase JAK2 (Homo sapiens) (UniProt O60674); conditions: KINOMEscan 353-kinase binding panel, qPCR; JAK2(Kin.Dom.2); at 10 µM; active compounds read low
[30] = biological target: Tyrosine-protein kinase JAK3 (Homo sapiens) (UniProt P52333); conditions: KINOMEscan 353-kinase binding panel, qPCR; JAK3(Kin.Dom.2); at 10 µM; active compounds read low
[31] = biological target: Tyrosine-protein kinase SYK (Homo sapiens) (UniProt P43405); conditions: KINOMEscan 353-kinase binding panel, qPCR, at 10 µM, active compounds read low

- percent of control binding [1]: 95% (inactive)
- percent of control binding [2]: 100% (inactive)
- percent of control binding [3]: 100% (inactive)
- percent of control binding [4]: 96% (inactive)
- percent of control binding [5]: 99% (inactive)
- percent of control binding [6]: 100% (inactive)
- percent of control binding [7]: 89% (inactive)
- percent of control binding [8]: 91% (inactive)
- percent of control binding [9]: 100% (inactive)
- percent of control binding [10]: 97% (inactive)
- percent of control binding [11]: 100% (inactive)
- percent of control binding [12]: 100% (inactive)
- percent of control binding [13]: 100% (inactive)
- percent of control binding [14]: 95% (inactive)
- percent of control binding [15]: 100% (inactive)
- percent of control binding [16]: 97% (inactive)
- percent of control binding [17]: 87% (inactive)
- percent of control binding [18]: 100% (inactive)
- percent of control binding [19]: 89% (inactive)
- percent of control binding [20]: 92% (inactive)
- percent of control binding [21]: 100% (inactive)
- percent of control binding [22]: 91% (inactive)
- percent of control binding [23]: 100% (inactive)
- percent of control binding [24]: 76% (inactive)
- percent of control binding [25]: 90% (inactive)
- percent of control binding [26]: 100% (inactive)
- percent of control binding [27]: 99% (inactive)
- percent of control binding [28]: 100% (inactive)
- percent of control binding [29]: 47% (inactive)
- percent of control binding [30]: 100% (inactive)
- percent of control binding [31]: 100% (inactive)
SMILES: Cc1cc2nc(NCCCO)n(CC(=O)c3cc(C(C)(C)C)c(O)c(C(C)(C)C)c3)c2cc1C
